Experiment [1] has as its system BxPC-3 cells. As to the kind of experiment: MTS cytotoxicity assay, BxPC-3. The class given is cell-based. As to conditions: 37 °C, triplicate, at least three experiments, errors = transformed greater extreme of standard error, read-out: BxPC-3 cell growth inhibition IC50. As for the experimental part: (§1) CUSTOM_[…] ("<1>=[N+]",("charge", 0, 2)) […]
(§2) CUSTOM_[…] ("<1>=[N]=[N]",("bond",1,(2,3))) […]
(§3) CUSTOM_[…] ("<1>([C]=[C])=[N][N]",("bond",1,(3,5))) […]
(§4) The MiaPaCa-2 cell line, BxPC-3 cell line and AsPC-1 cell line were purchased from the European Collection of Cell Cultures (ECACC, Porton Down, UK). MiaPaCa-2 cells were cultured in DMEM media with 2 mM L-glutamine, 100 U/mL penicillin, 100 µg/mL streptomycin and 10% FCS.
(§5) BxPC-3 cells and AsPC-1 cells were cultured in RPMI-1640 media containing 2 mM L-glutamine, 100 U/mL penicillin, 100 µg/mL streptomycin and 10% FCS. Cells were sub-cultured twice weekly and maintained at 37 °C and 5% CO2.
(§6) The anti-proliferative activity of the compounds studied was assessed by MTS assay (Promega) following the manufacturer’s instructions. Cells were seeded at 5 x 103 / 100 μL in a 96-well plate and left untreated or treated with DMSO (vehicle control), or compounds 1-4 (100 μM – […], in well concentration) in triplicate for 72 h at 37 °C with 5% CO2. Following this, MTS assay reagent was added to each well and the plates incubated for 4 h at 37 °C with 5% CO2. The absorbance was measured at 492 nm using the BMG Labtech POLARstarOPTIMA microplate reader. […]
For orientation: Tetrazolium assays rely on reduction of a dye to a coloured formazan, in cell work by metabolically active cells.

Experiment [2] relates to AsPC-1 cells. Description: MTS cytotoxicity assay, AsPC-1. The class given is cell-based. Conditions: for IC50: 37 °C, triplicate, at least three experiments, errors = transformed greater extreme of standard error, read-out: AsPC-1 cell growth inhibition IC50; for activity against AsPC-1 cells: at the concentrations evaluated (up to 100 μM), result in words. The protocol: as §1, §2, §3, §4, §5, §6

The target in experiment [3] is T1, Mcl-1 (UniProt P97287+Q07820).
T1 construct: amino acid residues 152-189 of mouse Mcl-1 fused with amino acid residues 209-327 of; 8 x His (N); TEV site (N); made in house; host or cells: E. coli BL21(DE3)pLysS
T1 sequence (P97287 152-189 limits assumed): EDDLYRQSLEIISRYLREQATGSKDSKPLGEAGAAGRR
T1 sequence (Q07820 209-327 limits assumed): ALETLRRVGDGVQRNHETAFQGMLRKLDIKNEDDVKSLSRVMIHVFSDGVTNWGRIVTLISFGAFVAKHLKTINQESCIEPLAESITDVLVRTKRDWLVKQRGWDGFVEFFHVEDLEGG
As to the kind of experiment: Competitive fluorescence anisotropy (FA) assay, FITC-NoxaB displacement from Mcl-1. In kind it is binding. As to conditions: SEM, read-out: FA IC50. As for the experimental part: Fmoc, 9-fluorenylmethylcarbony. IC50 determined by non -linear regression of at least three experiments.
4. Fluorescence Anisotropy Binding Assay
Fluorescence anisotropy was carried out on a BMG Labtech clariostar microplate reader with a fluorescence anisotropy optic measuring at 482/530 nm. Low -binding, Corning 96 -well black plates were used and all reagents used in the assay were biological grade and purchased from Sigma Aldrich and Novabioche m. All solutions were made using MilliQ water .
Anisotropy values were automatically calculated using the following formula […]
Where r = anisotropy, l a = parallel emission light, lb = perpendicular emission light and I = total […]
KD was determined using GraphPad Prism Version 6.0 software, using the One Site – Total binding […]
Where Bmax is the maximum specific binding, KD is the equilibrium binding constant, and NS is the slope of nonspecific binding. […]
IC50 was determined using GraphPad Prism Version 6.0 software, using a four-parameter logistic model, according to precedent from Ottmann and co-workers.[5] Errors are the transformed greater extreme of the standard error. […]
For binding each well contained 10 µL of Mcl -1 protein in 10-fold dilutions (0.37 pM to 3.7 µM) […]
protein were dissolved in PBS: 0.05% Tween -20 buffer at pH 7.4. Reagents were incubated for 30 min at room temperature prior to reading. Bubbles were removed and 8 data points were generated.
Figure S 1: Fluorescence Anisotropy direct titration.
To confirm reproducibility of
(µ) and standard deviations (σ) were inputted into the following equation:
Inhibition screens were carried out using 10 nM Mcl -1, 5 nM fluorescently-tagged peptide and 100 µM of inhibitor. Compounds were dissolved in DMSO. […]
control (DMSO) were used to define the mini mum and maximum values and ensure the assay was […]
(1 picture or pasted object on this page, not shown here) […]
Bubbles were removed and 8 data points were generated. […]
A general note: In fluorescence polarisation assays a small probe gives low polarisation when free and higher when bound to something large.

In experiment [4] the test system is BxPC-3 cells. Description: Annexin-V-FLUOS staining, phosphatidylserine externalization. Conditions: 4 h, fluorescence microscopy. In kind it is cell-based. As for the experimental part: Figure 2 Representative small molecules induce hallmarks of apoptosis. A) Increase of caspase‐3 activation in BxPC‐3 cells 4 h after treatment. B) Externalization of phosphatidylserine, a hallmark of apoptosis, was evaluated by exposing BxPC‐3 cells to compounds 18 (25 μM), 20 (5 μM), 21 (5 μM), and 23 (25 μM) for 4 h followed by annexin‐V‐FLUOS. Images were taken at 10× magnification with a GFP filter (top) and white light (bottom). […]
as §1, §2, §3, §4
BxPC-3 cells and AsPC-1 cells were cultured in RPMI-1640 media containing 2 mM L-glutamine, 100 U/mL penicillin, 100 µg/mL streptomycin and 10% FCS. Cells were sub-cultured twice weekly and maintained at 37 °C and 5% CO2. […]
An Annexin-V-FLUOS/Propidium iodide staining kit (Roche Applied Science) was used to detect phosphatidylserine externalization in pancreatic cancer cell line BxPC-3. Cells, seeded in clear 96- […]
and treated with staining kit according to the manufacturer’s protocol. Fluorescence microscopy […]
was used to examine cells and pictures taken with an inverted Leica DMII fluorescence microscope […]
Caspase 3 activation assay […]

For experiment [5], the system named is MiaPaCa-2 cells. As to the kind of experiment: MTS cytotoxicity assay, MiaPaCa-2. The class given is cell-based. As to conditions: 37 °C, triplicate, at least three experiments, errors = transformed greater extreme of standard error, read-out: MiaPaCa-2 cell growth inhibition IC50. As for the experimental part:
as §1, §2, §3, §4, §5, §6

Experiment [6] concerns the target T2, Bcl-2 (Homo sapiens, UniProt P10415, DEL35-91/INS34DVEENRTEAPEGTESE).
T2 construct: The Bcl-2 protein used in our study has the same construction as that used in the work of Fesik; purchased Dundee Cell Product Ltd
As to the kind of experiment: Competitive FA assay, FITC-Bid displacement from Bcl-2. Conditions: 5 nM FITC-Bid, 30 nM Bcl-2; up to 100 µM compound. In kind it is binding. As for the experimental part:
For binding each well contained 10 µL of Bcl -2 protein in 10-fold dilutions (0.90 pM to 9.0 µM) […]
(§7) were dissolved in PBS: 0.05% Tween -20 buffer at pH 7.4. Reagents were incubated for 30 min at room temperature prior to reading. Bubbles were removed and 8 data points were generated.
Figure S 3: Fluorescence Anisotropy direct titration. […] Normalized […]
(§8) (1 picture or pasted object on this page, not shown here)

In experiment [7] the target is T3, Bcl-xL (Homo sapiens, UniProt Q07817, DEL45-84).
T3 construct: The Bcl-xL protein used in our study is a truncated construction of the full-length protein, with; purchased Dundee Cell Product Ltd
T3 sequence (Q07817 with tags, fused parts or gaps DEL45-84): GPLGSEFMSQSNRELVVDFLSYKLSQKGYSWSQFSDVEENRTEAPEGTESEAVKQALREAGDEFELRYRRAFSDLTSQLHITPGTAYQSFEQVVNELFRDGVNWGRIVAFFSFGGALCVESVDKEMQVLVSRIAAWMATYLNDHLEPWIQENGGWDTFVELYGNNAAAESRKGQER
Description: Competitive FA assay, FITC-Bid displacement from Bcl-xL. In kind it is binding. Conditions: 5 nM FITC-Bid, up to 100 µM compound. The protocol: as §7, §8
Inhibition screens were carried out using […]

[8] abbreviates: Table 2, inhibition of binding of 5 nM FITC-NoxaB to 10 nM Mcl-1, PBS, 0.05% Tween-20, pH 7.4, non-linear regression of at least three experiments, errors = transformed greater extreme of standard error.

The source of these data is article PMC5577515, “Peptide‐Directed Binding for the Discovery of Modulators of α‐Helix‐Mediated Protein–Protein Interactions: Proof‐of‐Concept Studies with the Apoptosis Regulator Mcl‐1” (Angewandte Chemie (International Ed. in English), 2017).

Like-named read-outs stand apart in the source and are kept apart here.

T2 sequence (P10415 with tags, fused parts or gaps INS34DVEEN/V35R/G36T/A37E/P40E/DEL42-87/P88T/V89E/P90S/P91E): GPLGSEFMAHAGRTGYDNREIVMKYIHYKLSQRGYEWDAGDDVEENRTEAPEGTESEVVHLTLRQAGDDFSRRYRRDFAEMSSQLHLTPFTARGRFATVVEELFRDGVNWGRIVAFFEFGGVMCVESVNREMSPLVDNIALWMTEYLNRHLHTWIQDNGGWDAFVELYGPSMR

For orientation: IC50 means the concentration that inhibits the measured activity by half. On to `COC(=O)C(Cc1cn(C23CC4CC(CC(C4)C2)C3)nn1)NC(=O)OCC1c2ccccc2-c2ccccc21` (stereo not drawn) [Compound 18], for which the IC50 is 29.8 ± 4.15 µM in experiment [1] (72 h, SEM); more than 100 µM in experiment [2] (72 h); 0.186 ± 0.02 µM in experiment [3] (setting [8]); 15.2 ± 0.75 µM in experiment [5] (72 h, SEM). Besides, the “activity against AsPC-1 cells” value in experiment [2] is “ineffective”. For the same compound, the “externalization of phosphatidylserine (annexin-V-FLUOS binding)” value (from here on “externalization of phosphatidylserine”) in experiment [4] (25 μM) is on record as “induce the externalization of phosphatidylserine”. The “binding to Bcl-2 in FA assay” value in experiment [6] is “no appreciable binding”. In addition, the “binding to Bcl-xL in FA assay” value in experiment [7] is “no appreciable binding”.

For the compound `COC(=O)C(Cc1cn(Cc2ccc(C#N)cc2)nn1)NC(=O)OCC1c2ccccc2-c2ccccc21` (stereo not drawn) [Compound 20], the IC50 in experiment [1] (72 h, SEM) was 5.98 ± 1.14 µM; in experiment [2] (72 h, SEM), 2.04 ± 0.62 µM; in experiment [3] (setting [8]), 0.249 ± 0.051 µM; in experiment [5] (72 h, SEM) it was 6.57 ± 3.92 µM. Moreover, in experiment [4] (5 μM), the “externalization of phosphatidylserine” value is given as “induce the externalization of phosphatidylserine”.

As for `COC(=O)C(Cc1cn(Cc2ccc(Cl)cc2)nn1)NC(=O)OCC1c2ccccc2-c2ccccc21` (stereo not drawn) [Compound 21], the IC50 in experiment [1] (72 h, SEM) is 2.81 ± 0.4 µM; in experiment [2] (72 h), more than 100 µM; in experiment [3] (setting [8]), 1.26 ± 0.142 µM; in experiment [5] (72 h, SEM) it was 1.85 ± 3.17 µM. Further, the “activity against AsPC-1 cells” value in experiment [2] is recorded as “ineffective”. In experiment [4] (5 μM), the “externalization of phosphatidylserine” value is recorded as “induce the externalization of phosphatidylserine”. Moreover, the “binding to Bcl-2 in FA assay” value in experiment [6] is “no appreciable binding”. The “binding to Bcl-xL in FA assay” value in experiment [7] is reported as “no appreciable binding”.

Consider `COC(=O)[C@H](Cc1cn(Cc2ccccc2F)nn1)NC(=O)OCC1c2ccccc2-c2ccccc21` [Compound 23, methyl (S)-2-((((9H-fluoren-9-yl)methoxy)carbonyl)amino)-3-(1-(2-fluorobenzyl)-1H-1,2,3-triazol-4-yl)propanoate], for which the IC50 in experiment [1] (72 h, SEM) amounted to 25.2 ± 2.66 µM; in experiment [2] (72 h, SEM) it was 10.5 ± 1.53 µM; in experiment [3] (setting [8]), 1.7 ± 0.23 µM; in experiment [5] (72 h, SEM), 19.5 ± 1.35 µM. Further, in experiment [4] (25 μM), the “externalization of phosphatidylserine” value was “induce the externalization of phosphatidylserine”.

Regarding `Clc1ccc(-c2cn(Cc3ccccc3)nn2)c(Cl)c1` [Compound 25, 1-benzyl-4-(2,4-dichlorophenyl)-1H-1,2,3-triazole], the IC50 in experiment [1] (Homo sapiens, BXPC-3, 72 h) was more than 100 µM; in experiment [2] (Homo sapiens, ASPC1, 72 h), more than 100 µM; in experiment [3] it was 5.5 ± 3.92 µM; in experiment [5] (Homo sapiens, MIA PaCa-2, 72 h) it was more than 100 µM.
